# Laboratory results: EPA's ToxValDB 9.5
# Tested on: Rattus norvegicus
# Conditions: short-term, duration: 28 days, oral, gavage, Sprague-Dawley
smiles,measurement,setting,value
O=S(=O)([O-])C(F)(F)C(F)(F)C(F)(F)C(F)(F)C(F)(F)C(F)(F)F.[K+] [Potassium perfluorohexanesulfonate],NOEL,"F, Clinical chemistry_Alanine aminotransferase",50 mg/kg-day
same,NOEL,"F, Clinical chemistry_Albumin",50 mg/kg-day
same,NOEL,"F, Clinical chemistry_Albumin/globulin ratio",50 mg/kg-day
same,NOEL,"F, Clinical chemistry_Alkaline phosphatase",50 mg/kg-day
same,NOEL,"F, Clinical chemistry_Aspartate aminotransferase",50 mg/kg-day
same,NOEL,"F, Clinical chemistry_Cholesterol",50 mg/kg-day
same,NOEL,"F, Clinical chemistry_Direct bilirubin",50 mg/kg-day
same,LOEL,"F, Clinical chemistry_Free thyroxine",12.5 mg/kg-day
same,NOEL,"F, Clinical chemistry_Globulin",50 mg/kg-day
same,NOEL,"F, Clinical chemistry_Sorbitol dehydrogenase",50 mg/kg-day
same,NOEL,"F, Clinical chemistry_Testosterone",50 mg/kg-day
same,NOEL,"F, Clinical chemistry_Thyroid stimulating hormone",50 mg/kg-day
same,NOEL,"F, Clinical chemistry_Total bile acids",50 mg/kg-day
same,NOEL,"F, Clinical chemistry_Total bilirubin",50 mg/kg-day
same,NOEL,"F, Clinical chemistry_Total protein",50 mg/kg-day
same,LOEL,"F, Clinical chemistry_Total thyroxine",6.25 mg/kg-day
same,NOEL,"F, Clinical chemistry_Total triiodothyronine",50 mg/kg-day
same,NOEL,"F, Clinical chemistry_Triglycerides",50 mg/kg-day
same,NOEL,"F, Gene expression_Acox1",50 mg/kg-day
same,LOEL,"F, Gene expression_Cyp2b1",3.12 mg/kg-day
same,LOEL,"F, Gene expression_Cyp2b2",3.12 mg/kg-day
same,NOEL,"F, Gene expression_Cyp4a1",50 mg/kg-day
same,NOEL,"F, Hematology_Erythrocytes",50 mg/kg-day
same,NOEL,"F, Hematology_Hematocrit",50 mg/kg-day
same,NOEL,"F, Hematology_Hemoglobin",50 mg/kg-day
same,NOEL,"F, Hematology_Leukocytes",50 mg/kg-day
same,NOEL,"F, Hematology_Reticulocytes",50 mg/kg-day
same,NOEL,"F, Hematology_S. neutrophils",50 mg/kg-day
same,NOEL,"F, Nonneoplastic effects_Bone marrow - Hypocellularity",50 mg/kg-day
same,NOEL,"F, Nonneoplastic effects_Kidney - Papilla, necrosis",50 mg/kg-day
same,NOEL,"F, Nonneoplastic effects_Liver - Hepatocyte, cytoplasmic alteration",50 mg/kg-day
same,NOEL,"F, Nonneoplastic effects_Liver - Hepatocyte, hypertrophy",50 mg/kg-day
same,NOEL,"F, Nonneoplastic effects_Liver - Hepatocyte, vacuolization cytoplasmic",50 mg/kg-day
same,NOEL,"F, Nonneoplastic effects_Liver - Necrosis",50 mg/kg-day
same,LOEL,"F, Nonneoplastic effects_Nose - Olfactory epithelium, degeneration",50 mg/kg-day
same,LOEL,"F, Nonneoplastic effects_Nose - Olfactory epithelium, hyperplasia",50 mg/kg-day
same,NOEL,"F, Nonneoplastic effects_Nose - Olfactory epithelium, necrosis",50 mg/kg-day
same,NOEL,"F, Nonneoplastic effects_Spleen - Extramedullary hematopoiesis, decreased",50 mg/kg-day
same,NOEL,"F, Nonneoplastic effects_Stomach, forestomach - Epithelium, hyperplasia",50 mg/kg-day
same,NOEL,"F, Nonneoplastic effects_Thymus - Atrophy",50 mg/kg-day
same,NOEL,"F, Organ weights_Heart - Absolute",50 mg/kg-day
same,NOEL,"F, Organ weights_Heart - Relative",50 mg/kg-day
same,LOEL,"F, Organ weights_Liver - Absolute",3.12 mg/kg-day
same,LOEL,"F, Organ weights_Liver - Relative",3.12 mg/kg-day
same,NOEL,"F, Organ weights_Lung - Absolute",50 mg/kg-day
same,NOEL,"F, Organ weights_Lung - Relative",50 mg/kg-day
same,LOEL,"F, Organ weights_R. adrenal gland - Absolute",12.5 mg/kg-day
same,LOEL,"F, Organ weights_R. adrenal gland - Relative",50 mg/kg-day
same,NOEL,"F, Organ weights_R. kidney - Absolute",50 mg/kg-day
same,NOEL,"F, Organ weights_R. kidney - Relative",50 mg/kg-day
same,NOEL,"F, Organ weights_Spleen - Absolute",50 mg/kg-day
same,NOEL,"F, Organ weights_Spleen - Relative",50 mg/kg-day
same,NOEL,"F, Organ weights_Thymus - Absolute",50 mg/kg-day
same,NOEL,"F, Organ weights_Thymus - Relative",50 mg/kg-day
same,NOEL,"F, Reproductive toxicity_Altered estrous cyclicity",50 mg/kg-day
same,NOEL,"F, Survival rates",50 mg/kg-day
same,NOEL,"F, body weight",50 mg/kg-day
same,NOEL,"M, Clinical chemistry_Alanine aminotransferase",10 mg/kg-day
same,NOEL,"M, Clinical chemistry_Albumin",10 mg/kg-day
same,LOEL,"M, Clinical chemistry_Albumin/globulin ratio",10 mg/kg-day
same,NOEL,"M, Clinical chemistry_Alkaline phosphatase",10 mg/kg-day
same,NOEL,"M, Clinical chemistry_Aspartate aminotransferase",10 mg/kg-day
same,LOEL,"M, Clinical chemistry_Cholesterol",1.25 mg/kg-day
same,NOEL,"M, Clinical chemistry_Direct bilirubin",10 mg/kg-day
same,LOEL,"M, Clinical chemistry_Free thyroxine",0.625 mg/kg-day
same,LOEL,"M, Clinical chemistry_Globulin",10 mg/kg-day
same,NOEL,"M, Clinical chemistry_Sorbitol dehydrogenase",10 mg/kg-day
same,NOEL,"M, Clinical chemistry_Testosterone",10 mg/kg-day
same,NOEL,"M, Clinical chemistry_Thyroid stimulating hormone",10 mg/kg-day
same,NOEL,"M, Clinical chemistry_Total bile acids",10 mg/kg-day
same,NOEL,"M, Clinical chemistry_Total bilirubin",10 mg/kg-day
same,NOEL,"M, Clinical chemistry_Total protein",10 mg/kg-day
same,LOEL,"M, Clinical chemistry_Total thyroxine",0.625 mg/kg-day
same,LOEL,"M, Clinical chemistry_Total triiodothyronine",0.625 mg/kg-day
same,LOEL,"M, Clinical chemistry_Triglycerides",2.5 mg/kg-day
same,LOEL,"M, Gene expression_Acox1",5 mg/kg-day
same,LOEL,"M, Gene expression_Acyl-CoA oxidase",5 mg/kg-day
same,LOEL,"M, Gene expression_Cyp2b1",1.25 mg/kg-day
same,LOEL,"M, Gene expression_Cyp2b2",0.625 mg/kg-day
same,LOEL,"M, Gene expression_Cyp4a1",1.25 mg/kg-day
same,NOEL,"M, Hematology_Erythrocytes",10 mg/kg-day
same,NOEL,"M, Hematology_Hematocrit",10 mg/kg-day
same,NOEL,"M, Hematology_Hemoglobin",10 mg/kg-day
same,NOEL,"M, Hematology_Leukocytes",10 mg/kg-day
same,LOEL,"M, Hematology_Reticulocytes",1.25 mg/kg-day
same,NOEL,"M, Hematology_S. neutrophils",10 mg/kg-day
same,NOEL,"M, Nonneoplastic effects_Bone marrow - Hypocellularity",10 mg/kg-day
same,NOEL,"M, Nonneoplastic effects_Kidney - Papilla, necrosis",10 mg/kg-day
same,NOEL,"M, Nonneoplastic effects_Liver - Hepatocyte, cytoplasmic alteration",10 mg/kg-day
same,LOEL,"M, Nonneoplastic effects_Liver - Hepatocyte, hypertrophy",2.5 mg/kg-day
same,NOEL,"M, Nonneoplastic effects_Liver - Hepatocyte, vacuolization cytoplasmic",10 mg/kg-day
same,NOEL,"M, Nonneoplastic effects_Liver - Necrosis",10 mg/kg-day
same,NOEL,"M, Nonneoplastic effects_Nose - Olfactory epithelium, degeneration",10 mg/kg-day
same,NOEL,"M, Nonneoplastic effects_Nose - Olfactory epithelium, hyperplasia",10 mg/kg-day
same,NOEL,"M, Nonneoplastic effects_Nose - Olfactory epithelium, inflammation, suppurative",10 mg/kg-day
same,NOEL,"M, Nonneoplastic effects_Nose - Olfactory epithelium, necrosis",10 mg/kg-day
same,NOEL,"M, Nonneoplastic effects_Spleen - Extramedullary hematopoiesis, decreased",10 mg/kg-day
same,NOEL,"M, Nonneoplastic effects_Stomach, forestomach - Epithelium, hyperplasia",10 mg/kg-day
same,NOEL,"M, Nonneoplastic effects_Thymus - Atrophy",10 mg/kg-day
same,NOEL,"M, Organ weights_Heart - Absolute",10 mg/kg-day
same,NOEL,"M, Organ weights_Heart - Relative",10 mg/kg-day
same,LOEL,"M, Organ weights_Liver - Absolute",1.25 mg/kg-day
same,LOEL,"M, Organ weights_Liver - Relative",1.25 mg/kg-day
same,NOEL,"M, Organ weights_Lung - Absolute",10 mg/kg-day
same,NOEL,"M, Organ weights_Lung - Relative",10 mg/kg-day
same,LOEL,"M, Organ weights_R. adrenal gland - Absolute",5 mg/kg-day
same,LOEL,"M, Organ weights_R. adrenal gland - Relative",2.5 mg/kg-day
same,NOEL,"M, Organ weights_R. kidney - Absolute",10 mg/kg-day
same,LOEL,"M, Organ weights_R. kidney - Relative",10 mg/kg-day
same,NOEL,"M, Organ weights_Spleen - Absolute",10 mg/kg-day
same,NOEL,"M, Organ weights_Spleen - Relative",10 mg/kg-day
same,NOEL,"M, Organ weights_Thymus - Absolute",10 mg/kg-day
same,NOEL,"M, Organ weights_Thymus - Relative",10 mg/kg-day
same,NOEL,"M, Reproductive toxicity_Altered sperm parameters",10 mg/kg-day
same,NOEL,"M, Survival rates",10 mg/kg-day
same,NOEL,"M, body weight",10 mg/kg-day
